# Reference: patent US20250092069A1, “SILYL-LIPID CA[…] ENHANCED BIOLOGICAL ACTIVITY” (The Regents of the University of California, priority 2022, published 2025)
# Experiments:
# CB1 [1] = target: T1, CB1 (Homo sapiens, UniProt P21554); experiment: CB1 β-arrestin recruitment antagonist assay (Eurofin's); format: cell-based; settings: antagonist mode, 0.016 μM CP55940; for IC50: β-arrestin recruitment, read-out: RC50 (IC50), antagonist, CB1
# Description: (§1) For antagonist assays, data was normalized to the maximal and minimal response observed in the presence of EC80 ligand and vehicle.
# CB2 [2] = target: T2, CB2 (Homo sapiens, UniProt P34972); experiment: CB2 β-arrestin recruitment antagonist assay (Eurofin's); format: cell-based; settings: antagonist mode, 0.0053 μM CP55940; for IC50: β-arrestin recruitment, read-out: RC50 (IC50), antagonist, CB2
# T2 sequence (P34972 whole entry): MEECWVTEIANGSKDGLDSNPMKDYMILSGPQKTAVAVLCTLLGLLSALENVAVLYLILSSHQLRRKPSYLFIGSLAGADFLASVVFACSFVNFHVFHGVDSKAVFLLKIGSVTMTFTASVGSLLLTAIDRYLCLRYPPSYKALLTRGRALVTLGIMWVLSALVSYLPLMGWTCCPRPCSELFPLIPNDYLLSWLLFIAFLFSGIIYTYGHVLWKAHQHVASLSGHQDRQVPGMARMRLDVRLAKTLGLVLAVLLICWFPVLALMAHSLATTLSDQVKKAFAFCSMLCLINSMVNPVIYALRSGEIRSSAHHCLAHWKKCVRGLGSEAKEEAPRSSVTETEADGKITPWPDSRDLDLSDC
# Description: as §1
# CB2 [3] = target: T2, CB2; experiment: CB2 β-arrestin recruitment agonist assay (Eurofin's); format: cell-based; settings: for Emax / EC50: β-arrestin recruitment, agonist mode; for EC50: read-out: RC50 (EC50), agonist, CB2
# CB1 [4] = target: T1, CB1; experiment: CB1 β-arrestin recruitment agonist assay (Eurofin's); format: cell-based; settings: agonist mode; for EC50: read-out: RC50 (EC50), agonist, CB1
# [5] = cited from earlier work
# TNF-α release = settings: at 30 min, LPS-induced model; cited from earlier work
# [6] = normalized to response with EC80 ligand and vehicle
# T1 sequence (P21554 whole entry): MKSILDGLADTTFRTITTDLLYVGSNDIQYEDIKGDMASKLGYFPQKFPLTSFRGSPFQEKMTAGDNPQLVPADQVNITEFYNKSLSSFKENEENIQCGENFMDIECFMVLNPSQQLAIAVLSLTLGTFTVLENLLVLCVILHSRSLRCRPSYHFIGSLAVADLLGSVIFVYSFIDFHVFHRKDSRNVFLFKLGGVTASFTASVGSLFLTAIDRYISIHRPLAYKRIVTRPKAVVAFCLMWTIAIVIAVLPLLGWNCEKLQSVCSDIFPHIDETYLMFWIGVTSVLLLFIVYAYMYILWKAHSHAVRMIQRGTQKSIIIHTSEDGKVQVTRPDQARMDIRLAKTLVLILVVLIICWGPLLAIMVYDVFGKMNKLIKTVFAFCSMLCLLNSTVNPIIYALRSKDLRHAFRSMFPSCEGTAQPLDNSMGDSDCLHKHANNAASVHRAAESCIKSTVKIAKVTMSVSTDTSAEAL
compound,measurement,setting,value
"Cc1c(C(=O)NN2CCOCC2)nn(-c2ccc(Cl)cc2Cl)c1-c1ccc(I)cc1 [AM281, reference compound]","Emax, antagonist, CB1",CB1 [1]; [6],106.6%
same,IC50,CB1 [1],0.0105 µM
C=C(C)[C@H]1CCC(C)=C[C@@H]1c1c(O)cc(CC[Si](C)(C)CCCC)cc1O [AAC-02],IC50,CB2 [2],> 10 µM
same,selectivity for CB2 vs CB1,CB2 [3]; agonist EC50 CB1 vs CB2,500 ×
same,Emax,CB2 [3],50.3%
same,EC50,CB2 [3],0.018 µM
same,Emax,CB1 [1]; [6],71.1%
same,IC50,CB1 [1],2.23 µM
same,EC50,CB1 [4],> 10 µM
C[Si]1(C)CC(C(=O)O)N(C(=O)OCC2c3ccccc3-c3ccccc32)C1 (stereo not drawn) [Fmoc-Sip],Log P,[5],1.3
CC(C)(C)c1ccccc1 [t-butylbenzene],Log P,[5],4.0
C=C(C)[C@H]1CCC(C)=C[C@@H]1c1c(O)cc([Si](C)(C)CCCCCC)cc1O [AAC-01],Emax,CB2 [2]; [6],69.7%
same,IC50,CB2 [2],1.87 µM
same,Emax,CB2 [3],70%
same,EC50,CB2 [3],0.00414 µM
same,Emax,CB1 [1]; [6],86.4%
same,IC50,CB1 [1],2.07 µM
same,Emax,CB1 [4],64.8%
same,EC50,CB1 [4],0.0333 µM
Cc1ccc(-n2nc(C(C)(C)C)cc2NC(=O)Nc2ccc(OCCN3CCOCC3)c3ccccc23)cc1 [BIRB-796],TNF-α suppression,TNF-α release,41%
SR 144528 [reference compound],"Emax, antagonist, CB2",CB2 [2]; [6],101.6%
"CCCCCCC(C)(C)c1ccc([C@@H]2C[C@H](O)CC[C@H]2CCCO)c(O)c1 [CP55,940, reference compound]",Emax,CB2 [3],101%
C[Si](C)(C)c1ccccc1 [trimethylsilyl-benzene],Log P,[5],4.7
O=C(O)[C@@H]1CCCN1C(=O)OCC1c2ccccc2-c2ccccc21 [Fmoc-Pro],Log P,[5],0.094
